In patent US20070122422A1, “Sodium-independent small neutral amino acid transporter transporting L- and D- amino acids” (Japan Science and Technology Corporation, priority 2000, published 2007):

Key:
Type in all cases: cell-based
[1] = target: T1, asc-1 of mouse (co-expressed with 4F2hc of mouse) (Mus musculus, UniProt P63115); assay: Release of preloaded 14C-alanine from oocytes co-expressing asc-1 and 4F2hc on extracellular addition of compound; details: 100 μM compound added to Na+-free uptake solution; room temperature
T1 construct: expressed in transfected cells; host or cells: Xenopus oocytes injected with cRNA
T1 sequence (P63115 1-530): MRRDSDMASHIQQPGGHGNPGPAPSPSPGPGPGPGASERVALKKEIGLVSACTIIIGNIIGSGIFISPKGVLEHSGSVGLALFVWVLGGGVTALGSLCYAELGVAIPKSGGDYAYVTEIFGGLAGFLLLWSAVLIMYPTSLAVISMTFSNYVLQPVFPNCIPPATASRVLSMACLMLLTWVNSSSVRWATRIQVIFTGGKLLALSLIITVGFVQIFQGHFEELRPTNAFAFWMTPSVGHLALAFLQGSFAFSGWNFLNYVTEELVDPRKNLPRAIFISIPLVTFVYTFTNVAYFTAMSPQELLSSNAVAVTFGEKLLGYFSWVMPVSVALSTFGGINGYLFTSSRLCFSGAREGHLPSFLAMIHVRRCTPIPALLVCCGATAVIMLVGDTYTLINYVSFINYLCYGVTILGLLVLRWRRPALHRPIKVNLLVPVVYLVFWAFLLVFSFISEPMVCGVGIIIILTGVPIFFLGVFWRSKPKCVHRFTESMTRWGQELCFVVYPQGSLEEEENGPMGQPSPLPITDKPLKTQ
T1 sequence (P10852 1-526 partner): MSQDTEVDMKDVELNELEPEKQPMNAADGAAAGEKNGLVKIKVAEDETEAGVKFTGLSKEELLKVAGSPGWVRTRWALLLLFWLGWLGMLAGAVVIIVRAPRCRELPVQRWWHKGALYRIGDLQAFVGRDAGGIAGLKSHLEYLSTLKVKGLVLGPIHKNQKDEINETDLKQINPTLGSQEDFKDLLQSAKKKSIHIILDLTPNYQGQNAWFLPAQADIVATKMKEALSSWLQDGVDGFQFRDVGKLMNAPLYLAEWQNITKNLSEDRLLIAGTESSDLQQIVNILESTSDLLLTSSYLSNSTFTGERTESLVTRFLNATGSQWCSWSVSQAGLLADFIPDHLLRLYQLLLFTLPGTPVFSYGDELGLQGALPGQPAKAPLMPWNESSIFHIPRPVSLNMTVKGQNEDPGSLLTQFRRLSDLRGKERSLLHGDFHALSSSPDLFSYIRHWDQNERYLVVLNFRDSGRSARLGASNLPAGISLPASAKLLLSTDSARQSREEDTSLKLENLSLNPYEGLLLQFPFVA
Protocol: Release of a preloaded ^14C-alanine mediated by asc-1 was checked in the oocytes into which both asc-1 gene cRNA and 4F2hc gene cRNA of mouse were injected together. ^14C-Alanine (−3nCi) of 100 μM in an amount of 100 nl was injected into the oocytes into which both asc-1 gene cRNA and 4F2hc gene cRNA of mouse were injected together, washed with an ice-cooled Na^+-free uptake solution containing no alanine and transferred to a Na^+-free uptake solution to which alanine (100 μM) was added or not added at room temperature (18° C.-22° C.) and the amount of ^14C-alanine released outside the cells was measured.
In oocytes into which cRNA of asc-1 gene and cRNA of 4F2hc gene of mouse were injected together, release of preloaded ^14C-alanine mediated by asc-1 was investigated whereupon it was checked whether the compound which inhibited the incorporation of ^14C-alanine mediated by asc-1 was a substrate of asc-1.
^14C-Alanine (−3nCi) of 100 μM in an amount of 100 nl was injected into the oocytes into which both asc-1 gene cRNA and 4F2hc gene cRNA of mouse were injected together, washed with an ice-cooled Na^+-free uptake solution containing no alanine and transferred to a Na^+-free uptake solution to which amino acid or amino acid analog (100 μM) was added or not added at room temperature (18° C.-22° C.) and the amount of ^14C-alanine released outside the cells was measured.
Black bars in FIG. 18 are the case where there were used oocytes into which cRNA of mouse asc-1 gene and cRNA of mouse 4F2hc gene were injected while white bars are the case where there were used oocytes into which water was injected instead of cRNA as a control.

[2] = target: T1, asc-1 of mouse (co-expressed with 4F2hc of mouse); assay: Michaelis-Menten kinetic test of substrate incorporation by Xenopus oocytes co-expressing asc-1 and 4F2hc; details: ratio to the Vmax value for alanine (defined as 1.00)
Protocol: (§1) Into oocytes were injected 12 ng of asc-1 gene cRNA of mouse, 13 ng of 4F2hc gene cRNA of mouse or 12 ng asc-1 gene cRNA of mouse/13 ng of 4F2hc gene cRNA of mouse to express followed by incubating for 3 days. […] Thus, the oocytes were allowed to stand for 30 minutes in a Na^+-free uptake solution [100 mM choline chloride, 2 mM potassium chloride, 1.8 mM calcium chloride, 1 mM magnesium chloride, 5 mM HEPES; pH 7.4] containing ^14C-alanine (100 μM) as a substrate and the rate of the substrate incorporated into the cells was measured by way of counting the radioactivity incorporated thereinto.
A Michaelis-Menten kinetic test was carried out for a sodium-independent small neutral amino acid transporter asc-1 which transports L- and D-amino acids. By checking the changes in the rate of incorporation of alanine due to the difference in concentration of the alanine substrate, the Michaelis-Menten kinetic test of asc-1 was carried out.
An experiment for the incorporation of alanine was carried out according to the method mentioned in the above Example 2(1) using the oocytes into which both asc-1 gene cRNA of mouse and 4F2hc gene cRNA of mouse were injected.
With regard to amino acids other than alanine which were used as substrates, a Michaelis-Menten kinetic was carried out as well in the same manner whereupon Km values and Vmax values were calculated. Each Vmax value in Table 1 was shown in terms of the ratio when the Vmax value of alanine was defined as 1.00.

[3] = target: T2, intracellular substrate-binding site of asc-1 of mouse (Mus musculus, UniProt P63115); assay: Release of injected 14C-amino acid from oocytes co-expressing asc-1 and 4F2hc on extracellular alanine; details: alanine 100 μM added to Na+-free uptake solution
T2 construct: expressed in transfected cells; host or cells: Xenopus oocytes injected with cRNA
T2 sequence (P63115 1-530): T1 sequence (P63115 1-530)
T2 sequence (P10852 1-526 partner): T1 sequence (P10852 1-526 partner)
Protocol: In oocytes into which cRNA of asc-1 gene and cRNA of 4F2hc gene of mouse were injected together, release of preloaded ^14C-amino acid mediated by asc-1 was checked whereby the substrate selectivity of intracellular substrate-binding site of asc-1 was checked.
^14C-Amino acid (˜3nCi) of 100 μM in an amount of 100 nl was injected into the oocytes into which both asc-1 gene cRNA and 4F2hc gene cRNA of mouse were injected together, washed with an ice-cooled Na^+-free uptake solution containing no alanine and transferred to a Na^+-free uptake solution to which alanine (100 μM) was added or not added at room temperature (18° C.-22° C.) and the amount of ^14C-amino acid released outside the cells was measured.
Black bars in FIG. 21 show the case where alanine was added to a Na^+-free uptake solution while bars with oblique lines show the case where alanine was not added to a Na^+-free uptake solution.

[4] = target: T1, asc-1 of mouse (co-expressed with 4F2hc of mouse); assay: Inhibition of 14C-alanine incorporation by added amino acids and analogs in oocytes co-expressing asc-1 and 4F2hc; details: 14C-alanine 50 μM; 5 mM non-labeled compound; Na+-free uptake solution
Protocol: as §1
In an experiment of incorporation of alanine by oocytes into which both asc-1 gene cRNA of mouse and 4F2hc gene cRNA of mouse were injected, influence of addition of various amino acid and analogs thereof was investigated.
In an experiment of incorporation of alanine, a method according to that mentioned in the above Example 2(1) was carried out using oocytes into which both asc-1 gene cRNA of mouse and 4F2hc gene cRNA of mouse were injected. Here, a Na^+-free uptake solution was used and incorporation of ^14C-alanine (50 μM) was measured in the presence and absence of 5 mM of various compounds (non-labeled).

[5] = target: T1, asc-1 of mouse (co-expressed with 4F2hc of mouse); assay: Incorporation of radiolabeled amino acids and analogs by oocytes co-expressing asc-1 and 4F2hc
Protocol: Incorporation of alanine when asc-1 gene cRNA of mouse was solely expressed in oocytes of Xenopus and when asc-1 gene cRNA of mouse and 4F2hc gene cRNA of mouse were expressed in oocytes of Xenopus together was compared.
as §1
In an experiment of incorporation of alanine by oocytes into which both asc-1 gene cRNA and 4F2hc gene cRNA of mouse were injected together, influence of the salt added to the medium was investigated.
The experiment of incorporation of alanine was carried out in accordance with the method mentioned in the above Example 2(1) using oocytes into which both asc-1 gene cRNA and 4F2hc gene cRNA of mouse were injected together. When the influence of sodium ion was checked however, a standard uptake solution (where 100 mM choline chloride was substituted with 100 mM sodium chloride) was used in place of the Na^+-free uptake solution as the uptake solution. When the influence of chlorine ion was checked, a gluconic acid uptake solution (where 100 mM sodium chloride was substituted with 100 mM sodium gluconate) was used in place of the standard uptake solution.
Incorporation by asc-1 was investigated using various amino acids and analogs thereof as substrates. Experiment for incorporation of various amino acids and analogs thereof was carried out according to the method mentioned in the above Example 2(1) using oocytes into which asc-1 gene cRNA of mouse and 4F2hc gene cRNA of mouse were injected together. With regard to the substrates however, various compounds labeled with radioactivity were used in place of ^14C-alanine.
Influence of pH was checked in an experiment for incorporation of alanine by oocytes into which both asc-1 gene cRNA and 4F2hc gene cRNA of mouse were injected together. With regard to an experiment for incorporation of alanine, the method according to that mentioned in the above Example 2 (1) was carried out using oocytes into which both asc-1 gene cRNA of mouse and 4F2hc gene cRNA of mouse were injected together.

Structure (SMILES) | increase in the release of preloaded 14C-alanine [1] | Vmax [2] | release of injected 14C-labeled amino acid by extracellular alanine [3] | inhibition of incorporation of 14C-alanine mediated by asc-1 [4] | incorporation into the oocytes as substrate ([5]; radiolabeled substrate, oocytes expressing both asc-1 and 4F2hc, Na+-free uptake solution) | transport by asc-1 (affinity in words) ([5]; summary statement, asc-1 co-existing with 4F2hc)
C[C@@H](O)[C@H](N)C(=O)O [L-Threonine] | high increase | 0.86 | increase in release |  |  | 
NCC(=O)O [Glycine] | high increase | 0.89 | increase in release |  |  | 
N[C@@H](CS)C(=O)O [L-Cysteine] |  | 0.82 | increase in release | particularly strongly inhibited | big incorporation | highly affinitive
